Reference: patent US20250154138A1, “Small Molecule IL-17A Modulators” (BeiGene, Ltd., priority 2022, published 2025)

What was measured:
[1] = test system: IL-17-induced GROα secretion from HT-29 cells; assay: GROα release assay in human colorectal adenocarcinoma epithelial cell (HT-29, ELISA); assay type: cell-based; details: Homo sapiens, HT-29, 48 h, 10 ng/mL IL-17A, highest concentration 10 μM, read-out: Cellular assay HT29 cell/CXCL1 IC50
In short: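 HT-29 cells were exposed 48 h at 37°C to IL-17A (final 10 ng/mL) preincubated 15 min with compound (4-fold dilutions, top 10 μM). Secreted GROα was quantified by ELISA against a standard curve, and IC50 obtained by four-parameter fitting.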

[2] = molecular target: human IL-17A / human IL-17RA (Homo sapiens (Human), UniProt Q16552); assay: Human IL-17A biochemical assay (HTRF, blocking of IL-17A binding to IL-17RA); details: 0.4 nM IL-17A, 0.3 nM IL-17RA, max compound concentration 10 uM
In short: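 Recombinant human IL-17A (0.4 nM) was pre-incubated with compound (top 10 uM, 2.7-fold, 10 points) for 3 h at room temperature in 20 mM HEPES pH 7.5, 50 mM NaCl, 0.1% BSA, 0.2 mM DTT, 0.005% Tween 20. IL-17RA (0.3 nM) was then added for 1 h, followed by anti-6His Tb and anti-human IgG-XL665 detection for 1 h; IC50 from four-parameter fit.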

Sequence of human IL-17A / human IL-17RA (Q16552 24-155): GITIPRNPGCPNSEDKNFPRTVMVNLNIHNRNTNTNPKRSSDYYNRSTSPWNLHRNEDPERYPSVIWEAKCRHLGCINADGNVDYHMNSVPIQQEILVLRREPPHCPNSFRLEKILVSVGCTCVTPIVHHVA

SMILES	IC50 [1] [nM]	IC50 [2] [nM]
CNC(=O)C1(N2C[C@@H](C(C)C)NC2=O)Cc2ccc(NC(=O)[C@@H](NC(=O)c3cccc(OC(C)C)c3)C3CCCCC3)cc2C1 (stereo partly drawn) [Example 84, 5-((S)-2-cyclohexyl-2-(3-isopropoxybenzamido)acetamido)-2-((R)-4-isopropyl-2-oxoimidazolidin-1-yl)-N-methyl-2,3-dihydro-1H-indene-2-carboxamide]	94.4	37
CNC(=O)C1(N2C[C@@H](C(C)C)NC2=O)Cc2ccc(NC(=O)C(NC(=O)c3ccnn3C)C3CCc4ccccc43)cc2C1 (stereo partly drawn) [Example 97, N-(1-(2,3-dihydro-1H-inden-1-yl)-2-((2-((R)-4-isopropyl-2-oxoimidazolidin-1-yl)-2-(methylcarbamoyl)-2,3-dihydro-1H-inden-5-yl)amino)-2-oxoethyl)-1-methyl-1H-pyrazole-5-carboxamide]	1860	535
CNC(=O)C1(N2C[C@@H](C(C)C)NC2=O)Cc2ccc(NC(=O)C(NC(=O)c3ccnn3C)C3CCc4c(Cl)cccc4C3)cc2C1 (stereo partly drawn) [Example 201, N-(1-(5-chloro-1,2,3,4-tetrahydronaphthalen-2-yl)-2-((2-((R)-4-isopropyl-2-oxoimidazolidin-1-yl)-2-(methylcarbamoyl)-2,3-dihydro-1H-inden-5-yl)amino)-2-oxoethyl)-1-methyl-1H-pyrazole-5-carboxamide]	39.5	6.5
Cc1ccccc1NC(=O)C1(N2C[C@@H](C(C)C)NC2=O)Cc2ccc(NC(=O)[C@@H](NC(=O)c3nonc3C)C(C3CC3)C3CC3)cc2C1 (stereo partly drawn) [Example 261, N-((2S)-1,1-dicyclopropyl-3-((2-((R)-4-isopropyl-2-oxoimidazolidin-1-yl)-2-(o-tolylcarbamoyl)-2,3-dihydro-1H-inden-5-yl)amino)-3-oxopropan-2-yl)-4-methyl-1,2,5-oxadiazole-3-carboxamide]	143	58
CNC(=O)C1(N2CC(C)NC2=O)Cc2ccc(NC(=O)[C@@H](NC(=O)c3ccnn3C)C3CCCCC3)cc2C1 (stereo partly drawn) [Example 1, N-((1S)-1-cyclohexyl-2-((2-(4-methyl-2-oxoimidazolidin-1-yl)-2-(methylcarbamoyl)-2,3-dihydro-1H-inden-5-yl)amino)-2-oxoethyl)-1-methyl-1H-pyrazole-5-carboxamide]	898	379
Cc1ccc(NC(=O)C2(N3CC4(CC4)CNC3=O)Cc3ccc(NC(=O)[C@@H](NC(=O)c4nonc4C)C4CCC(F)(F)CC4)cc3C2)cc1 (stereo partly drawn) [Example 221, N-((1S)-1-(4,4-difluorocyclohexyl)-2-oxo-2-((2-(6-oxo-5,7-diazaspiro[2.5]octan-5-yl)-2-(p-tolylcarbamoyl)-2,3-dihydro-1H-inden-5-yl)amino)ethyl)-4-methyl-1,2,5-oxadiazole-3-carboxamide]	111	47.8
CNC(=O)C1(N2CC3(CC3)CNC2=O)Cc2ccc(NC(=O)[C@@H](NC(=O)c3ccnn3C)C3CCC(F)(F)CC3)cc2C1 (stereo partly drawn) [Example 142, N-((1S)-1-(4,4-difluorocyclohexyl)-2-((2-(methylcarbamoyl)-2-(6-oxo-5,7-diazaspiro[2.5]octan-5-yl)-2,3-dihydro-1H-inden-5-yl)amino)-2-oxoethyl)-1-methyl-1H-pyrazole-5-carboxamide]	197	107
Cn1nccc1C(=O)N[C@H](C(=O)Nc1ccc2c(c1)CC(C(=O)Nc1cccc(F)c1)(N1CC3(CC3)CNC1=O)C2)C1CCCCC1 (stereo partly drawn) [Example 200, N-((1S)-1-cyclohexyl-2-((2-((3-fluorophenyl)carbamoyl)-2-(6-oxo-5,7-diazaspiro[2.5]octan-5-yl)-2,3-dihydro-1H-inden-5-yl)amino)-2-oxoethyl)-1-methyl-1H-pyrazole-5-carboxamide]	107	31.2
CNC(=O)C1(N2CC3(CC3)CNC2=O)Cc2ccc(NC(=O)[C@@H](NC(=O)c3ccnn3C3CC3)C3CCCCC3)cc2C1 (stereo partly drawn) [Example 141, N-((1S)-1-cyclohexyl-2-((2-(methylcarbamoyl)-2-(6-oxo-5,7-diazaspiro[2.5]octan-5-yl)-2,3-dihydro-1H-inden-5-yl)amino)-2-oxoethyl)-1-cyclopropyl-1H-pyrazole-5-carboxamide]	41.1	16
CNC(=O)C1(N2CC3(CC3)CNC2=O)Cc2ccc(NC(=O)C(NC(=O)c3nonc3C)C3CCC(C(F)(F)F)CC3)cc2C1 (stereo not shown) [Example 181, 4-methyl-N-(2-((2-(methylcarbamoyl)-2-(6-oxo-5,7-diazaspiro[2.5]octan-5-yl)-2,3-dihydro-1H-inden-5-yl)amino)-2-oxo-1-(4-(trifluoromethyl)cyclohexyl)ethyl)-1,2,5-oxadiazole-3-carboxamide]	154	193
CNC(=O)C1(N2C[C@@H](C(C)C)NC2=O)Cc2cc(NC(=O)[C@@H](NC(=O)c3ccnn3C)C3CCCCC3)cnc2C1 (stereo partly drawn) [Example 117, 3-((S)-2-cyclohexyl-2-(1-methyl-1H-pyrazole-5-carboxamido)acetamido)-6-((R)-4-isopropyl-2-oxoimidazolidin-1-yl)-N-methyl-6,7-dihydro-5H-cyclopenta[b]pyridine-6-carboxamide]	1060	925
CC(C)CNC(=O)C1(N2C[C@@H](C(C)C)NC2=O)Cc2ccc(NC(=O)[C@@H](NC(=O)c3ccnn3C)C3CCCCC3)cc2C1 (stereo partly drawn) [Example 124, N-((1S)-1-cyclohexyl-2-((2-(isobutylcarbamoyl)-2-((R)-4-isopropyl-2-oxoimidazolidin-1-yl)-2,3-dihydro-1H-inden-5-yl)amino)-2-oxoethyl)-1-methyl-1H-pyrazole-5-carboxamide]	32.5	19
CNC(=O)C1(N2C[C@@H](C(C)C)NC2=O)Cc2ccc(NC(=O)C(NC(=O)c3ccnn3C)C3CCc4ccccc4C3)cc2C1 (stereo partly drawn) [Example 128, N-(2-((2-((R)-4-isopropyl-2-oxoimidazolidin-1-yl)-2-(methylcarbamoyl)-2,3-dihydro-1H-inden-5-yl)amino)-2-oxo-1-(1,2,3,4-tetrahydronaphthalen-2-yl)ethyl)-1-methyl-1H-pyrazole-5-carboxamide]	277	89.8
CC(C)[C@@H]1CN(CC2Cc3ccc(NC(=O)[C@@H](NC(=O)c4ccnn4C(C)C)C(C4CC4)C4CC4)cc3N2C)C(=O)N1 (stereo partly drawn) [Example 287, N-((2S)-1,1-dicyclopropyl-3-((2-(((R)-4-isopropyl-2-oxoimidazolidin-1-yl)methyl)-1-methylindolin-6-yl)amino)-3-oxopropan-2-yl)-1-isopropyl-1H-pyrazole-5-carboxamide]	222	61.5
Cn1nccc1C(=O)N[C@H](C(=O)Nc1ccc2c(c1)CC(N1CC3(CC3)CNC1=O)C2)C1CCCCC1 (stereo partly drawn) [Example 199, N-((1S)-1-cyclohexyl-2-oxo-2-((2-(6-oxo-5,7-diazaspiro[2.5]octan-5-yl)-2,3-dihydro-1H-inden-5-yl)amino)ethyl)-1-methyl-1H-pyrazole-5-carboxamide]	2770	570
CNC(=O)C1(N2C[C@@H](Cc3ccccn3)NC2=O)Cc2ccc(NC(=O)[C@@H](NC(=O)c3ccnn3C)C3CCCCC3)cc2C1 (stereo partly drawn) [Example 43, N-((1S)-1-cyclohexyl-2-((2-(methylcarbamoyl)-2-((R)-2-oxo-4-(pyridin-2-ylmethyl)imidazolidin-1-yl)-2,3-dihydro-1H-inden-5-yl)amino)-2-oxoethyl)-1-methyl-1H-pyrazole-5-carboxamide]	2380	1460
Cc1ccccc1NC(=O)C1(N2CC3(CC3)CNC2=O)Cc2ccc(NC(=O)[C@@H](NC(=O)c3nonc3C)C3CCC(F)(F)CC3)cc2C1 (stereo partly drawn) [Example 214, N-((1S)-1-(4,4-difluorocyclohexyl)-2-oxo-2-((2-(6-oxo-5,7-diazaspiro[2.5]octan-5-yl)-2-(o-tolylcarbamoyl)-2,3-dihydro-1H-inden-5-yl)amino)ethyl)-4-methyl-1,2,5-oxadiazole-3-carboxamide]	102	37.3
Cc1nonc1C(=O)NC(C(=O)Nc1ccc2c(c1)CC(N1C[C@@H](C(F)(F)F)NC1=O)C2)C1Cc2ccc(Cl)cc2C2(CC2)C1 (stereo partly drawn) [Example 227, N-(1-(7′-chloro-3′,4′-dihydro-2′H-spiro[cyclopropane-1,1′-naphthalen]-3′-yl)-2-oxo-2-((2-((S)-2-oxo-4-(trifluoromethyl)imidazolidin-1-yl)-2,3-dihydro-1H-inden-5-yl)amino)ethyl)-4-methyl-1,2,5-oxadiazole-3-carboxamide]	168	112
Cc1nonc1C(=O)N[C@H](C(=O)Nc1ccc2c(c1)CC(C(=O)NC1CCOC1)(N1C[C@@H](C(C)C)NC1=O)C2)C(C1CC1)C1CC1 (stereo partly drawn) [Example 280, N-((2S)-1,1-dicyclopropyl-3-((2-((R)-4-isopropyl-2-oxoimidazolidin-1-yl)-2-((tetrahydrofuran-3-yl)carbamoyl)-2,3-dihydro-1H-inden-5-yl)amino)-3-oxopropan-2-yl)-4-methyl-1,2,5-oxadiazole-3-carboxamide]	48.1	17.3
CNC(=O)C1(N2CC(C3CCC3)NC2=O)Cc2ccc(NC(=O)[C@@H](NC(=O)c3ccnn3C)C3CCCCC3)cc2C1 (stereo partly drawn) [Example 27, N-((1S)-2-((2-(4-cyclobutyl-2-oxoimidazolidin-1-yl)-2-(methylcarbamoyl)-2,3-dihydro-1H-inden-5-yl)amino)-1-cyclohexyl-2-oxoethyl)-1-methyl-1H-pyrazole-5-carboxamide]	982	160
